For eleven compounds, EC50 results are on record in patent US20210169892A1, “MODULATORS OF THE INTEGRATED STRESS PATHWAY” (Calico Life Sciences LLC, priority 2017, published 2021).

Some results are limits rather than exact numbers.

This assay deals with HEK293T cells carrying the ATF4 luciferase reporter. The assay can be described thus: ATF4-Luc assay (in vitro model of vanishing white matter disease). Format: cell-based. The conditions noted are these: Homo sapiens, HEK-293T; HEK293T cells with ATF4 luciferase reporter, 1 μg/mL tunicamycin, 7 hours, One Glo luminescence. Here is the method: In order to test exemplary compounds of the invention in a cellular context, a stable VWMD cell line was first constructed. The ATF4 reporter was prepared by fusing the human full-length ATF4 5′-UTR (NCBI Accession No. BC022088.2) in front of the firefly luciferase (FLuc) coding sequence lacking the initiator methionine as described in Sidrauski et al (eLife 2013). The construct was used to produce recombinant retroviruses using standard methods and the resulting viral supernatant was used to transduce HEK293T cells, which were then subsequently selected with puromycin to generate a stable cell line.
HEK293T cells carrying the ATF4 luciferase reporter were plated on polylysine coated 384-well plates (Greiner Bio-one) at 30,000 cells per well. Cells were treated the next day with 1 μg/mL tunicamycin and 200 nM of a compound of Formula (I) for 7 hours. Luminescence was measured using One Glo (Promega) as specified by the manufacturer. Cells were maintained in DMEM with L-glutamine supplemented with 10% heat-inactivated FBS (Gibco) and Antibiotic-Antimycotic solution (Gibco).
Table 2 below summarizes the EC50 data obtained using the ATF4-Luc assay for exemplary compounds of the invention.

As a reminder, the EC50 is the concentration at which the effect is half-maximal. Turning to `O=C(COc1ccc(Cl)c(F)c1)NC12CC(NC(=O)[C@@H]3COc4ccccc4O3)(C1)C2` [Compound 125, (2S)—N-{3-[2-(4-chloro-3-fluorophenoxy)acetamido]bicyclo[1.1.1]pentan-1-yl}-2,3-dihydro-1,4-benzodioxine-2-carboxamide], the EC50 is 50 to 250 nM. In the case of `O=C(COc1ccc(Cl)c(F)c1)NC12CC(NC(=O)C3CN(C(=O)CC(F)(F)F)c4cc(Cl)ccc4O3)(C1)C2` (centres unmarked) [Compound 182, 6-chloro-N-{3-[2-(4-chloro-3-fluorophenoxy)acetamido]bicyclo[1.1.1]pentan-1-yl}-4-(3,3,3-trifluoropropanoyl)-3,4-dihydro-2H-1,4-benzoxazine-2-carboxamide], the EC50 lay in the range of 50 to 250 nM.

Turning to `Cc1cc(S(=O)(=O)N2CC(C(=O)NC34CC(NC(=O)COc5ccc(Cl)c(F)c5)(C3)C4)Oc3ccc(Cl)cc32)c(C(F)(F)F)o1` (centres unmarked) [Compound 163, 6-chloro-N-{3-[2-(4-chloro-3-fluorophenoxy)acetamido]bicyclo[1.1.1]pentan-1-yl}-4-[5-methyl-2-(trifluoromethyl)furan-3-sulfonyl]-3,4-dihydro-2H-1,4-benzoxazine-2-carboxamide], the EC50 was more than 2000 nM. For the compound `COCCOCC(=O)N1CC(C(=O)NC23CC(NC(=O)COc4ccc(Cl)c(F)c4)(C2)C3)Oc2ccc(Cl)cc21` (centres unmarked) [Compound 156, 6-chloro-N-{3-[2-(4-chloro-3-fluorophenoxy)acetamido]bicyclo[1.1.1]pentan-1-yl}-4-[(2-methoxyethoxy)acetyl]-3,4-dihydro-2H-1,4-benzoxazine-2-carboxamide], the EC50 was 10 to 50 nM. Take `O=C(COc1ccc(Cl)c(F)c1)NC12CC(NC(=O)C3CN(C(=O)c4ccno4)c4cc(Cl)ccc4O3)(C1)C2` (centres unmarked) [Compound 154, 6-chloro-N-{3-[2-(4-chloro-3-fluorophenoxy)acetamido]bicyclo[1.1.1]pentan-1-yl}-4-(1,2-oxazole-5-carbonyl)-3,4-dihydro-2H-1,4-benzoxazine-2-carboxamide]: the EC50 is less than 10 nM.

Regarding `O=C(COc1ccc(Cl)c(F)c1)NC12CC(NC(=O)C3CN(CCO)c4cc(Cl)ccc4O3)(C1)C2` (centres unmarked) [Compound 135, 6-chloro-N-{3-[2-(4-chloro-3-fluorophenoxy)acetamido]bicyclo[1.1.1]pentan-1-yl}-4-(2-hydroxyethyl)-3,4-dihydro-2H-1,4-benzoxazine-2-carboxamide], the EC50 was less than 10 nM. Consider `O=C(COc1ccc(Cl)c(F)c1)NC12CC(NC(=O)[C@H]3CCc4cc(F)ccc4O3)(C1)C2` [Compound 120, (2R)—N-{3-[2-(4-chloro-3-fluorophenoxy)acetamido]bicyclo[1.1.1]pentan-1-yl}-6-fluoro-3,4-dihydro-2H-1-benzopyran-2-carboxamide], for which the EC50 was less than 10 nM. In the case of `CS(=O)(=O)N1CC(C(=O)NC23CC(NC(=O)COc4ccc(Cl)c(F)c4)(C2)C3)Oc2ccc(Cl)cc21` (centres unmarked) [Compound 168, 6-chloro-N-{3-[2-(4-chloro-3-fluorophenoxy)acetamido]bicyclo[1.1.1]pentan-1-yl}-4-(methanesulfonyl)-3,4-dihydro-2H-1,4-benzoxazine-2-carboxamide], the EC50 is 50 to 250 nM. With `O=C(COc1ccc(Cl)c(F)c1)NC12CC(NC(=O)[C@@H]3C[C@H](O)c4cc(Cl)ccc4O3)(C1)C2` (single isomer, unassigned) [Compound 195], the EC50 is less than 10 nM. As for `O=C(COc1ccc(Cl)c(F)c1)NC12CC(NC(=O)[C@H]3CNc4cc(Cl)ccc4O3)(C1)C2` (single isomer, unassigned) [Compound 102], the EC50 is less than 10 nM. With `NS(=O)(=O)c1ccc(S(=O)(=O)N2CC(C(=O)NC34CC(NC(=O)COc5ccc(Cl)c(F)c5)(C3)C4)Oc3ccc(Cl)cc32)cc1` (centres unmarked) [Compound 174, 6-chloro-N-{3-[2-(4-chloro-3-fluorophenoxy)acetamido]bicyclo[1.1.1]pentan-1-yl}-4-(4-sulfamoylbenzene-1-sulfonyl)-3,4-dihydro-2H-1,4-benzoxazine-2-carboxamide], the EC50 fell in the range of 50 to 250 nM.
